Source: patent US8715684B2, “Peptides inducing a CD4i conformation in HIV gp120 while retaining vacant CD4 binding site” (priority 2007, dated 2014)
Entries after “also recorded” stand apart in the source; their conditions may differ. Like-named read-outs stand apart in the source and are kept apart here.

How the values were obtained:
gp120BaL = assay: Dot blot of m2 phages with gp120BaL, probed with panel of defining mAbs (FIG. 8); type: binding, HIV-1
Description: Each dot was applied in duplicate.
A second measure of “improved peptide” characteristics is the ability to bind gp120s derived from other HIV-1 isolates. (m1 was developed using gp120451.) The preference was to identify a peptide that has the same type of effect on the BaL isolate of HIV-1 as does the m1-peptide for the 451 isolate.

gp120451 = assay: Dot blot of phage-displayed peptides incubated with gp120451, probed with defining mAbs or CD4 (FIG. 1, 4); type: binding, HIV-1
Experimental: Phages expressing the m1 peptide as protein fusions (m1) or not (fth1, as a negative control) were applied to nitrocellulose membranes as dots and incubated with or without gp120451. After washing, the filters were probed with either anti-gp120 mAb or the CG10 mAb as indicated and signals were developed by enhanced chemiluminescence (ECL)
Of the gp120-binding peptides isolated, one was particularly unique. […] As noted above, binding of CG10 to its epitope is absolutely dependent on the CD4i conformation of gp120. It was concluded that m1 binds to the CD4 binding site and acts as a CD4 mimetic, triggering a structural rearrangement locking gp120 into the CD4i conformation.
Because the CD4i conformation of gp120 can disrupt the integrity/accessibility of important neutralizing epitopes of gp120 [e.g. b12 (Xiang et al., 2002, supra)] the binding of a panel of neutralizing antibodies was tested.

gp120 = settings: for Kd: quantitative ELISA, FIG. 7
gp120JR-FL = assay: Binding of peptides to gp120 of the JR-FL isolate; design: species or system HIV-1
CD4 = CD4 (Homo sapiens, UniProt P01730); assay: Capture ELISA of m1 phages with CD4 alone (FIG. 2E); type: binding; settings: CD4 without gp120
Description: Anti-M13 (phage) antibody was adsorbed to microplate wells to capture either m1 peptide-expressing phages (A, B, D, E) or fth1-negative control phage (C).

Sequence	CD4 binding by peptide-captured gp120BaL (gp120BaL)	induction of CD4i epitopes (CG10, 17b) in gp120BaL (gp120BaL)	integrity of neutralizing / CD4BS epitopes (2G12, b12, b6, m14) in peptide-captured gp120BaL (gp120BaL)	binding to gp120BaL (gp120BaL; phage-displayed peptide)	binding of CD4BS mAbs b12, b6 and m14 to peptide/gp120 complex (gp120451)	induction of the CG10 epitope (CG10 mAb binding to peptide/gp120451 complex) (gp120451; phage-displayed peptide)	fold increase in binding / affinity for gp120 versus m1 (gp120; compared with m1) [fold]	Kd (gp120; read-out: KD for gp120 binding) [nM]	Kd (gp120; read-out: apparent affinity constant for gp120 binding) [nM]	binding to gp120JR-FL (gp120JR-FL)	binding of CD4 to peptide/gp120 complex (gp120451)	binding to gp120451 (gp120451; phage-displayed peptide)	binding of peptide to CD4 alone (CD4)
CDRRDLPDWAIRAC [m2]	is able to bind CD4 itself	induces CD4i epitopes; also recorded: induces both the CG10 and 17b epitopes	maintains the integrity of the CD4BS epitopes; also recorded: intact and available	binds m2 peptide; also recorded: binds also to gp120BaL	without interfering with b12, b6 or m14 binding	induced CG10 binding	10	6.5	6.5	–	–	–	–
CDRRDLPQWAKREC [m1]	–	–	–	–	bind the m1/gp120 complex very well; also recorded: without interfering with b12, b6 or m14 binding	elicit the CG10 epitope; also recorded: CG10 bound the complex; also recorded: induces the CG10 epitope; also recorded: induced CG10 binding	–	–	–	not to gp120JR-FL	CD4 itself bound the m1/gp120 complex	specifically bind gp120; also recorded: binds gp120; also recorded: binds to gp120451	no affinity for CD4 alone; also recorded: CD4 does not bind m1
